The subject of data set [1] is Claudin-5/Occludin. The data set is described as follows: Pathological blood-brain barrier Transwell model, Claudin-5/Occludin immunofluorescence. Format: cell-based. The following applies: 10 μM, 24 hours; FIG. 12.
Procedure: A Transwell model of co-incubation of brain microvascular endothelial cells bEnd.3 and glioma cells U87 MG simulates a pathological blood-brain barrier. Axitinib (10 μM), an Axitinib analog of phosphatidylinositol kinase (PI3K) inhibitor LY294002 (10 μM), protein kinase B (AKT) agonist SC79 (10 μM) were added into the Transwell chamber. After 24 hours, immunofluorescent stain was performed on bEnd.3 cells on the Transwell chamber membrane. A physiological blood-brain barrier simulated by a Transwell model of brain microvascular endothelial cell bEnd.3 was used as a positive control.
U87 MG glioma cells were used as brain tumor model cells. 1.5 mL suspension of well-grown U87 MG cell suspension was inoculated in a 12-well plate at a cell density of 2×10^5/well. Incubation was continued at 37° C. and 5% CO2 until the cells adhere. Then, the physiological blood-brain barrier as constructed by Method 1 in the Example 1, i.e., the Transwell chamber with bEnd.3 cells grown, was transferred to the 12-well plate with U87 MG cells grown. Co-culture was further continued for 24 hours to obtain a cell model of pathological blood-brain barrier.
Data set [2] has as its system Claudin-5. Description: VEGF-stimulated physiological blood-brain barrier Transwell model, Claudin-5 immunofluorescence. The conditions noted are these: bEnd.3 Transwell, exogenous VEGF plus Axitinib 0, 2, 4 μg/mL, 24 hours; FIG. 7. The data set is classed as cell-based.
Procedure: A Transwell model of brain microvascular endothelial cells bEnd.3 simulates a physiological blood-brain barrier. Transwell chambers were stimulated with the added exogenous vascular endothelial growth factor (VEGF), and further with Axitinib at different concentrations (0, 2 μg/mL, 4 μg/mL) synergistically for 24 hours. Thereafter, Immunofluorescence staining was performed on bEnd.3 cells on the Transwell chamber membrane. […] Panel B is the result of fluorescence semi-quantitative analysis of Claudin-5 expression by Image J (n=3).
Brain microvascular endothelial cells bEnd.3 were used as model cells of a blood-brain barrier. 0.5 mL suspension of well-grown bEnd.3 cells was inoculated in the chamber of a 12-well Transwell plate with a pore size of 0.4 μm at a cell density of 1×10^5/well. 1.5 mL of fresh culture medium was supplemented in the outer chamber. The culture medium was refreshed every other day. Incubation was continued for 15 days at 37° C. and 5% CO2. When the cell transmembrane resistance value was greater than 150 ohm·cm^2 (Ω·cm^2), a cell model of physiological blood-brain barrier was obtained for evaluation.
The physiological blood-brain barrier as constructed by Method 1 in the Example 1 was used as a model. Exogenous vascular endothelial cell growth factor (VEGF) and Axitinib at different concentrations were added to the Transwell chamber. […]
Data set [3] deals with pathological blood-brain barrier (bEnd.3 cells co-incubated with U87 MG glioma cells). The data set is described as follows: Pathological blood-brain barrier Transwell model, FITC-dextran transmembrane transport. Format: cell-based. The following applies: 10 μM, 24 hours, then FITC-dextran 10 kDa for 4 hours; FIG. 11.
Procedure: A Transwell model of co-incubation of brain microvascular endothelial cells bEnd.3 and glioma cells U87 MG simulates a pathological blood-brain barrier. Axitinib (10 μM), an Axitinib analog of phosphatidylinositol kinase (PI3K) inhibitor LY294002 (10 μM), protein kinase B (AKT) agonist SC79 (10 μM) were added into the Transwell chamber. After 24 hours, the Transwell chamber and the outer chamber were cleaned with PBS, and a solution of FITC-dextran in HBSS was added to the Transwell chamber, and was left for 4 hours. […] A physiological blood-brain barrier simulated by a Transwell model of brain microvascular endothelial cell bEnd.3 was used as a positive control (n=3).
U87 MG glioma cells were used as brain tumor model cells. 1.5 mL suspension of well-grown U87 MG cell suspension was inoculated in a 12-well plate at a cell density of 2×10^5/well. Incubation was continued at 37° C. and 5% CO2 until the cells adhere. […]
The physiological blood-brain barrier and the pathological blood-brain barrier as constructed in Method 1 and Method 2 in the Example 1 were used as models, respectively. […] After the cells were incubated at 37° C. in the dark for 4 hours, concentration of FITC-dextran transferred to the outer chamber via the Transwell chamber was detected with a fluorescence spectrophotometer.
In data set [4] the test system is pathological blood-brain barrier. The data set is described as follows: Evans blue permeation into the brain after treatment, model of Parkinson's disease. The data set is classed as in vivo, C57/BL6 mice.
Data set [5] has as its system tyrosine hydroxylase. The data set is described as follows: Striatum tyrosine hydroxylase immunohistochemistry, model of Parkinson's disease. The following applies: FIG. 29.
The subject of data set [6] is U87 MG glioma cells. The data set is described as follows: Cell survival rate by tetrazolium blue colorimetry, U87 MG cells. The data set is classed as cell-based. The following applies: U87MG cells, 10 μM (therapeutic dose); FIGS. 13 and 14. The method, then: FIG. 13: Evaluation of cell survival rate in a Transwell model. A Transwell model of co-incubation of brain microvascular endothelial cells bEnd.3 and glioma cells U87 MG simulates a pathological blood-brain barrier. Axitinib (10 μM) and an Axitinib analog of phosphatidylinositol kinase (PI3K) inhibitor LY294002 (10 μM) were added into the Transwell chamber. After 24 hours, the survival rate of bEnd.3 cells in the Transwell chamber (Panel A) and U87 MG cells in the Transwell outer chamber (Panel B) were detected by tetrazolium blue colorimetry (n=3).
FIG. 14: Evaluation of Cytotoxicity for Axitinib and an analog thereof. […] Cell survival rate was detected by tetrazolium blue colorimetry. […]
The physiological blood-brain barrier and the pathological blood-brain barrier as constructed in Method 1 and Method 2 in the Example 1 were used as models, respectively. […] Absorbance at 570 nm was measured with a microplate reader. The survival rate of cells was calculated according to the following formula: Survival rate of cells (%)=(absorbance value of a test group/absorbance value of a control group)×100%
In addition, bEnd.3 cells and U87 MG glioma cells were used as model cells to evaluate the cytotoxicity of Axitinib and an Axitinib analog of phosphatidylinositol kinase (PI3K) inhibitor LY294002 with the tetrazolium blue colorimetric method. […] Absorbance at 570 nm was measured with a microplate reader.

The subject of data set [7] is model of Parkinson's disease. Description: Movement time within 2 minutes, model of Parkinson's disease. The data set is classed as in vivo, C57/BL6 mice. The following applies: FIG. 28. Here is the method:
After the treatment was accomplished, movement time within 2 minutes (walking, lifting of both forelimbs, washing face, hair grooming and the like) was recorded for each of the test groups (n=5).
After the Axitinib treatment and the levodopa treatment was accomplished, movement time within 2 minutes (walking, lifting of both forelimbs, washing face, hair grooming and the like) was recorded for each of the test groups.

Data set [8] relates to pathological blood-brain barrier. Description: Evans blue permeation into the brain after a single dose, model of Parkinson's disease. The following applies: Parkinson's disease mice, 10 mg/kg tail vein, Evans blue after 24 hours; vs Parkinson's control; FIGS. 24 and 25. The data set is classed as in vivo, C57/BL6 mice.
Where [9] appears, read: Axitinib 10 mg/kg 7 days vs levodopa 20 mg/kg 10 days.

Molecules are shown by their SMILES.

`CNC(=O)c1ccccc1Sc1ccc2c(/C=C/c3ccccn3)n[nH]c2c1` [Axitinib, N-methyl-2-((3-((1E)-2-(pyridine-2-yl)ethenyl)-1H-indazol-6-yl)sulfanyl)benzamide]: in data set [1], the “Expression of tight junction protein Claudin-5/Occludin” value is given as “reduce the degree to which pathological blood-brain barrier tight junction protein of Claudin-5/Occludin is down-regulated”. Moreover, the “Expression of tight junction protein Claudin-5” value in data set [2] is on record as “reduce the degree to which Claudin-5 is down-regulated in a dose-dependent manner”. For the same compound, in data set [3], the “FITC-dextran transmembrane transport (blood-brain barrier permeability)” value is listed as “reduce blood-brain barrier permeability”. Also, the “Amount of Evans blue permeated into the brain, compared with the levodopa treatment group” value in data set [4] (setting [9]) is given as “significantly lower than that of the levodopa treatment group”. Besides, the “Amount of Evans blue permeated into the brain” value was “reduced to varied degrees” in data set [4] (Axitinib 10 mg/kg tail vein 7 days, levodopa 20 mg/kg intraperitoneally 10 days, vs Parkinson's control, FIGS. 26 and 27); “the amount of Evans blue permeated into the brain is reduced” in data set [8]. Also, the “Expression of striatum tyrosine hydroxylase, compared with the levodopa treatment group” value in data set [5] (setting [9]) is “superior to that in the levodopa treatment group”. Also, the “Expression of striatum tyrosine hydroxylase” value in data set [5] (Axitinib 10 mg/kg 7 days, levodopa 20 mg/kg 10 days) was “significantly up-regulated”. The Cytotoxicity entry in data set [6] is recorded as “do not produce significant cytotoxicity”. Moreover, the “Dyskinesia (movement time), Axitinib compared with levodopa” value in data set [7] (setting [9]) is “no difference in their efficacy”. Also, the “Dyskinesia (movement time within 2 minutes)” value in data set [7] (Axitinib 10 mg/kg 7 days, levodopa 20 mg/kg 10 days, vs Parkinson's control) is recorded as “significantly alleviated”.

The record behind these values is patent publication US12419875B2, “Use of Axitinib and analogs thereof in preparing blood-brain barrier permeability regulator” (ZHEJIANG UNIVERSITY, priority 2018, dated 2025).
